Results on one molecule are retold here after PMC7369637, “Inhibition of Resistance-Refractory P. falciparum Kinase PKG Delivers Prophylactic, Blood Stage, and Transmission-Blocking Antiplasmodial Activity” (Cell Chemical Biology, 2020).

For one assay, the system named is Pf 3D7-A10 ABS parasites. The assay is described as follows: 72-h ABS growth inhibition assay, 3D7-A10. It counts as cell-based. The following applies: Plasmodium falciparum, 3D7, Line 3D7-A10 wild-type. The protocol: Synchronicity was achieved using three rounds of sorbitol treatment on early rings, spaced 48 h apart, followed by magnetic purification of segmented schizonts following the final sorbitol treatment. […] Assays were repeated on at least three independent occasions (each with technical duplicates) and statistical significance was assessed using Mann Whitney U tests.

The target of assay [1] is T1, calcium-dependent protein kinase 1 (CDPK1) (PF3D7_0217500) (Plasmodium falciparum, UniProt P62344).
T1 construct: endogenous in cells; host or cells: P. falciparum asexual blood-stage parasites (trophozoite stage)
The assay is described as follows: Competitive chemoproteomics in Pf lysates (Kinobeads / bead-immobilized compound). Format: binding. The following applies: for Kd: read-out: Kdapp, CDPK1. As for the experimental part:
(§1) Pf protein extracts were prepared as described elsewhere ([Paquet et al., 2017]). Parasite cultures at the trophozoite stage were harvested, washed twice in RPMI 1640 medium (Gibco), and lysed by the addition of saponin to a final concentration of 0.1% for 5 min at room temperature. Free parasites were sedimented by centrifugation (3500 rpm for 10 min), washed three times with phosphate-buffered saline, and stored at −80°C. Parasites were resuspended in cell lysis buffer (50 mM tris-HCl (pH 7.5), 5% glycerol, 1.5 mM MgCl2, […], 1 mM […], 25 mM sodium fluoride, 0.8% NP-40, EDTA-free protease inhibitor cocktail tablets (Roche Diagnostics), and 1 mM DTT) and disrupted by sonication (Sonics Vibra-Cell) using two 30-s cycles on ice at half-amplitude. After centrifugation (140,000g for 1 h at 4°C), soluble proteins were recovered from the supernatants, and protein concentrations of each sample were estimated using the Lowry-based DC assay (Bio-Rad). Samples were stored at −80°C until use.
(§2) Kinobeads were prepared by immobilizing Bis-(III) indolyl-maleimide, purvalanol B, staurosporine and CZC8004, and the analogs of PD173955, sunitinib and vandetanib on NHS-activated Sepharose 4 beads (Amersham) ([Bantscheff et al., 2007]). […] The chemoproteomic affinity-capturing experiments were performed as previously described ([Bantscheff et al., 2011]). Briefly, beads were washed and equilibrated in lysis buffer (50 mM Tris-HCl, pH 7.4, 0.4 % Igepal-CA630, 1.5 mM MgCl2, 5 % Glycerol, 150 mM NaCl, 25 mM NaF, 1 mM Na3VO4, 1 mM DTT, and one cOmplete EDTA-free protease inhibitor tablet (Roche) per 25 mL). The beads were incubated at 4°C for 1 h with either 0.1 ml (0.3 mg) Pf blood stage extract or 0.5 mL (2.5 mg) human cell/tissue protein extract (a mixture of HEK-293, K-562, Hep G2 , and placental cells), which was pre-incubated with compound or DMSO (vehicle control). 10 samples were measured in parallel (TMT 10-plex ([Werner et al., 2014])) to generate values for the affinity of the beads to the bound proteins (“depletion” values, 4 samples) and to generate IC50 values (6 samples) in a single experiment. Apparent dissociation constants were determined after accounting for protein depletion by the beads ([Bantscheff et al., 2011]). Beads were transferred to Filter plates (Durapore PVDF membrane, Merck Millipore), washed with lysis buffer, and eluted with SDS sample buffer.
(§3) Proteins were digested according to a modified single pot solid-phase sample preparation (SP3) protocol ([Hughes et al., 2014]). Peptides were labeled with isobaric mass tags (Thermo Fisher Scientific, Waltham, MA) using 10-plex TMT reagents, enabling relative quantification of 10 conditions in a single experiment ([Werner et al., 2014]). The labeling reactions and LC-MS/MS measurements using Q Exactive Orbitrap or Orbitrap Fusion Lumos mass spectrometers (Thermo Fisher Scientific) were performed as described elsewhere ([Sridharan et al., 2019]). Mascot 2.4 (Matrix Science, Boston, MA) was used for protein identification by using a 10 parts per million mass tolerance for peptide precursors and 20 mD (HCD) mass tolerance for fragment ions. To create the fasta file for mascot searching, all proteins corresponding to the taxonomy ‘Plasmodium falciparum (isolate 3D7)’ were downloaded from Uniprot (release 20170621) and supplemented with common contaminant protein sequences of bovine serum albumin, porcine trypsin and mouse, rat, sheep and dog keratins. To assess the false discovery rate (FDR), “decoy” proteins (reverse of all protein sequences) were created and added to the database, resulting in a database containing a total of 14266 protein sequences, with 50% forward and 50% reverse. For peptide and protein identification of human proteins see ([Sridharan et al., 2019]). […]

Assay [2] concerns the target putative amino acid transporter (AAT) (PF3D7_1231400) (Plasmodium falciparum, UniProt Q8I5A6). Described as above. It counts as binding. The following applies: lysates exposed to 40 μM of the same compound vs vehicle. The protocol:
as §1, §2, §3

The next assay has as its system ed. Dd2-B2 TKL3I1250M. The assay is described as follows: 72-h ABS assay, CRISPR/Cas9-edited line. The following applies: Plasmodium falciparum, parent Dd2-B2 wild-type. It counts as cell-based. As for the experimental part:
(§4) Synchronicity was achieved using three rounds of sorbitol treatment on early rings, spaced 48 h apart, followed by magnetic purification of segmented schizonts following the final sorbitol treatment. Parasites were highly synchronous to within a 3 h window of development. Assays were repeated on at least three independent occasions (each with technical duplicates) and statistical significance was assessed using Mann Whitney U tests.
(§5) The resulting MMV030084-resistant parasites were cloned by limiting dilution ([Baker et al., 2017]) to obtain genetically homogenous cultures for further phenotyping and whole-genome sequencing. A second round of […]. […] Drug susceptibility of resistant lines was assessed using a 72 h ABS assay as described above, and a Mann Whitney U test was applied to assess statistically significant differences.
(§6) A CRISPR/Cas9 targeted gene editing strategy using an all-in-one plasmid approach was applied to introduce T1268R, I1250M and T1268R+I1250M in wild-type Dd2-B2 parasites or to produce a TKL3 KO line by inserting a stop codon and frameshift at amino acid position 1268. […] WR99210 (2.5 nM) was added to the culture medium 24 h after electroporation to select for successfully transfected parasites and was maintained in the medium until edited parasites were detected. […]

A further assay relates to ed. Dd2-B2 TKL3T1268R. The assay is described as follows: 72-h ABS assay, CRISPR/Cas9-edited line. It counts as cell-based. The following applies: Plasmodium falciparum, parent Dd2-B2 wild-type. As for the experimental part:
as §4, §5, §6

SMILES strings stand for the structures. Like-named read-outs stand apart in the source and are kept apart here.

T1 sequence (P62344 whole entry): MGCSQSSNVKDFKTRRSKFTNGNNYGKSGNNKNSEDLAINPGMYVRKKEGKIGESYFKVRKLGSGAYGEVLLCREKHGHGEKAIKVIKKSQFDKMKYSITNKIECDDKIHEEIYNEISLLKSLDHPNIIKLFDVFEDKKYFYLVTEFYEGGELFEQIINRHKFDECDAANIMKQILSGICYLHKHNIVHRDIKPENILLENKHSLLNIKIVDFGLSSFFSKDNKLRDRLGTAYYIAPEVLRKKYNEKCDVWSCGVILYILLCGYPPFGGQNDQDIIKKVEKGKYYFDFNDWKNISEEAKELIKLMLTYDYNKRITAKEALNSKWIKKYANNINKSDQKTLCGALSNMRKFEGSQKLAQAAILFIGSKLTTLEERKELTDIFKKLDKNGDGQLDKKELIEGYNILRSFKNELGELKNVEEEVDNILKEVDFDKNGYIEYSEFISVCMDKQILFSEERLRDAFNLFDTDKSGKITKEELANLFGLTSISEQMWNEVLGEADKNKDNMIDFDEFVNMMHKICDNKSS
putative amino acid transporter (AAT) (PF3D7_1231400), sequence (Q8I5A6 entry or part of it): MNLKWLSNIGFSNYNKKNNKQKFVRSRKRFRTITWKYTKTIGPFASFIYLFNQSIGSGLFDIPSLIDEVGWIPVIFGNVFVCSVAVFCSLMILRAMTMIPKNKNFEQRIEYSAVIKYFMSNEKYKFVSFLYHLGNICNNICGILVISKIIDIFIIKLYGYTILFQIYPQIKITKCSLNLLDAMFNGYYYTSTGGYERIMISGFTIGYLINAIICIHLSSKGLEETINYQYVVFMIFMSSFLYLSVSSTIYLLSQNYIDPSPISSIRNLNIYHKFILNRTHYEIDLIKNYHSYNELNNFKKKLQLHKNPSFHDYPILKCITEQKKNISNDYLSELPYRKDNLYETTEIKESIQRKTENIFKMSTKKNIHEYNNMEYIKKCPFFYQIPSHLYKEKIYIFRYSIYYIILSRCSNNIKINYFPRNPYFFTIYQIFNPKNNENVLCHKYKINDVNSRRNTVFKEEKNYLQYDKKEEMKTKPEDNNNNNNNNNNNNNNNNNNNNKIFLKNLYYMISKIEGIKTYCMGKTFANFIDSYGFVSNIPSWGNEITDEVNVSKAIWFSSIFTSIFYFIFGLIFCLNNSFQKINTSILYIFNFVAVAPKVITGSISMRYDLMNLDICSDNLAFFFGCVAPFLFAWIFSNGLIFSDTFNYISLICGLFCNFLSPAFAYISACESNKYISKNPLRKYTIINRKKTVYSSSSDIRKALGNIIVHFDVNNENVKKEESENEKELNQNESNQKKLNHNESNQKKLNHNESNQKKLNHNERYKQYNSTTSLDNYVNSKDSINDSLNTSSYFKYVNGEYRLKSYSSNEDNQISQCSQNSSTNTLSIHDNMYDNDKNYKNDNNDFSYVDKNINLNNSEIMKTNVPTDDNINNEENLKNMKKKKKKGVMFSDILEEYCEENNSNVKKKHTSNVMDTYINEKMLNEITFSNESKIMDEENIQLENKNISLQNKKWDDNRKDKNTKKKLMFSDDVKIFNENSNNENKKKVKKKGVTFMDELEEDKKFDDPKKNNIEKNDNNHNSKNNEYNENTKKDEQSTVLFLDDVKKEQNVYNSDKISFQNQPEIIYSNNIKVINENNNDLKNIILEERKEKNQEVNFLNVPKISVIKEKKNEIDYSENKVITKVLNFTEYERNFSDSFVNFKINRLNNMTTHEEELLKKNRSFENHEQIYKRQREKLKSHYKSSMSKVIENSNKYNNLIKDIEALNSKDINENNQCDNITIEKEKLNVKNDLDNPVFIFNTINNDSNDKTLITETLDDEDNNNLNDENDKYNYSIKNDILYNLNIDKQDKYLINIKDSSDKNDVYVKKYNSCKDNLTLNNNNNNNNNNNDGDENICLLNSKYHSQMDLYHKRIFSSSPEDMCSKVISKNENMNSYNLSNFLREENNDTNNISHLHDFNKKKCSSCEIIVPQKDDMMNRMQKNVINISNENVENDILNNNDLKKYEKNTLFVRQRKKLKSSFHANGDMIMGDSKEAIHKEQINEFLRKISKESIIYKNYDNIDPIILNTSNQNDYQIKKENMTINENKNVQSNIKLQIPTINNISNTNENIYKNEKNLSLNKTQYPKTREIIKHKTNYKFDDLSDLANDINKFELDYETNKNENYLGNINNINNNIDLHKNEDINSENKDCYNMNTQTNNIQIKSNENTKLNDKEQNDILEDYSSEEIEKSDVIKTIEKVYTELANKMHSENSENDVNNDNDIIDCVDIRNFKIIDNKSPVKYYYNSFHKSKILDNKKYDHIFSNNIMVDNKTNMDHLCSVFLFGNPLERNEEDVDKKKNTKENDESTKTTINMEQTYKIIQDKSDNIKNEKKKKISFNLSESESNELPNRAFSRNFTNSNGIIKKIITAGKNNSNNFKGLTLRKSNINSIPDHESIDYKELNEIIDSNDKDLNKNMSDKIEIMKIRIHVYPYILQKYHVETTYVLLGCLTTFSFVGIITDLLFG

As to `CC(C)(CN)c1nc(-c2ccc(Cl)c(O)c2)c(-c2ccncc2)[nH]1` [MMV030084], the 50% inhibitory concentration (IC50) in the assay with Pf 3D7-A10 ABS parasites worked out at 0.178 µM; with ed. Dd2-B2 TKL3I1250M, 0.307 µM; with ed. Dd2-B2 TKL3T1268R, 0.317 µM. The Kd was 0.22 µM in assay [1] ('084-beads (bead-immobilized MMV030084)); 0.215 µM in assay [1] (Kinobeads); under 0.1 µM in assay [1] (five independent experiments, lowest tested concentration 0.1 μM); 0.215 to 0.22 µM in assay [1] (two follow-up experiments with lower concentrations). The “CDPK1 pull-down by bead-bound compound” value in assay [1] (lysates exposed to 40 μM of the same compound vs vehicle) is reported as “pulled down”. Moreover, in assay [2], the “AAT pull-down by bead-bound compound” value was “pulled down”.
